The nature of series [1]: Hygroscopicity experiment (crystal forms of salts and crystal form A of free base). The class given is physicochemical. The text has this: • 2.1 Experimental objective: The hygroscopicity of different crystal forms of salts of the compound was investigated under various relative humidity conditions to provide a basis for screening and storage of the crystal forms of salts of the compound. • 2.2 Experimental scheme: The crystal forms of salts of the compound were placed in saturated water vapor at different relative humidities to reach a dynamic equilibrium between the compound and the water vapor.
3.1 Experimental objective: The hygroscopicity of crystal form A of free base of the compound was investigated under various relative humidity conditions to provide a basis for screening and storage of the crystal forms of the compound.
3.2 Experimental scheme: The crystal form A of free base of the compound was placed in saturated water vapor at different relative humidities to reach a dynamic equilibrium between the compound and the water vapor. The percentage weight gain of the compound due to moisture absorption was calculated after the equilibrium.

Series [2] can be described thus: Solid stability experiment of crystal form A of phosphate (5, 10, 20 and 30 days). Format: physicochemical. The settings on record: 60°C (GW, sealed), 50°C/75% RH (JS, unsealed), room temperature/92.5% RH (GS, unsealed). Here is the method:
• 5.1 Experimental objective: To investigate and compare the stability of the crystal form A of phosphate under the three conditions of a high temperature of 60°C (GW, sealed), 50°C/75% RH (JS, unsealed), and room temperature/92.5% RH (GS, unsealed) and provide a basis for the screening of the crystal forms of salts and the storage of the salts of the compound. • 5.2 Experimental scheme: About 2 mg of crystal form A of phosphate was weighed into 2 mL dry and clean glass vials, respectively. The vials were respectively placed under the conditions of 60°C (GW, sealed), 50°C/75% RH (JS, unsealed), and room temperature/92.5% RH (GS, unsealed) for 5, 10, 20 and 30 days. […] Therefore, the crystal form can well meet the requirements of subsequent long-term storage and formulation processes.

The nature of series [3]: Solubility experiments in different media, crystal forms of salts. On the set-up: thermodynamic solubility FaSSIF / thermodynamic solubility FaSSGF / thermodynamic solubility FeSSIF: unit not given here. The settings on record: about 2 mg suspended for 24 hours, 37°C, HPLC, external standard method. The class given is physicochemical. The text has this: 4.1 Experimental objective: The solubility of the crystal form A of phosphate, crystal form A of hydrochloride, crystal form A of sulphate, crystal form A of citrate, crystal form A of oxalate, crystal form A of maleate and crystal form A of salicylate in media such as artificial simulated gastric fluid (FaSSGF), fasted-state artificial simulated intestinal fluid (FaSSIF), and fed-state artificial simulated intestinal fluid (FeSSIF) was compared to provide a basis for the evaluation of the potential of the crystal forms of salts being manufactured as a drug. […]

Series [4] is described as follows: Rat pharmacokinetic evaluation test. Format: in vivo. The note with it: male, po, SD rats, plasma, p.o. 5 mg/kg. Here is the method:
1. Study objective: SD rats were used as test animals to study the pharmacokinetic behaviour of the compounds of the present invention in rats (plasma) after oral administration at a dose of 5 mg/kg. 2. Experimental scheme: 2.1 Experimental drugs: The example compounds of the present invention, made in house. 2.2 Experimental animals: 3 SD rats/group, male, from Shanghai Jiesijie Experimental Animal Co., Ltd., animal production license number (SCXK (Shanghai) 2013-0006 N0.311620400001794). 2.3 Preparation formulation: • Formulation of drug for oral administration: 20% solutol HS15 in 0.5% MC (methylcellulose) • 20 g of a Solutol HS15 solid and 0.5 g of a MC solid powder were weighed and dissolved in 80 mL of purified water, and the mixture was vortexed, mixed until uniform, and subjected to ultrasound treatment to obtain a clear solution of 20% solutol HS15 in 0.5% MC. The example compound was weighed into a 20 mL glass vial, the solution was added thereto and the mixture was subjected to ultrasound treatment for 10 minutes to obtain a clear solution at a concentration of 0.5 mg/mL. 2.4 Administration: 3 male SD rats were administered p.o. respectively after the rats were fasted overnight; and the p.o. dose was 5 mg/kg and the administration volume was 10 mL/kg. 2.5 Sample collection: Blood collection: Before and after administration to rats, 0.2 mL of blood was collected from the jugular vein at 0.25, 0.5, 1, 2, 4, 6, 8 and 24 h, and placed in an EDTA-K2 anticoagulation tube, which was centrifuged at 6000 rpm at 4°C for 6 min to separate plasma which was stored at -80°C; and the animals were fed 4 h after administration. 2.6 Sample treatment: • 1) Acetonitrile (160 µL) was added to plasma sample (40 µL) for precipitation, and the mixture was centrifuged at 3500 × g for 5-20 min. • 2) The treated supernatant solution was taken and subjected to LC/MS/MS to analyse the concentrations of the test compound. LC/MS/MS analysis instrument: AB Sciex API 4000 Qtrap. 2.7 Liquid phase analysis: • Liquid phase conditions: Shimadzu LC-20AD pump • Chromatographic column: Agilent ZORBAX XDB-C18 (50 × 2.1 mm, 3.5 µm), mobile phase: solution A: 0.1% formic acid in water, solution B: acetonitrile • Flow rate: 0.4 mL/min • Elution time: 0-4.0 min, with eluents as follows:
3. Experimental results and analysis: The main pharmacokinetic parameters were calculated using WinNonlin 6.1.

Series [5] concerns Ba/F3 EGFR L858R/T790M/C797S. The experiment in a line: Cell proliferation inhibition experiment (Cell Titer-Glo). Format: cell-based. The note with it: Mus musculus, 72 hours, read-out: Ba/F3 EGFR L858R_T790M_C797S IC50. The method, then:
(§1) Experimental objective: The objective of this test example is to test the inhibitory activity of compounds on the proliferation of different EGFR C797S drug-resistant mutant cell lines Ba/F3 EGFR Del19/T790M/C797S, Ba/F3 EGFR L858R/T790M/C797S, and Ba/F3 EGFR Del19/C797S. Experimental instruments: Centrifuge (Eppendorf 5810R); Microplate reader (BioTek Synergy H1) Pipette (Eppendorf or Rainin); Carbon dioxide incubator (Thermo 311) Cell counter (Life Countess II) Experimental reagents and consumables: • Ba/F3 EGFR Del19/T790M/C797S cells were purchased from KYinno Biotechnology Co., Ltd.; • Ba/F3 EGFR Del19/C797S cells were purchased from CoBioer Biosciences Co., Ltd.; • Ba/F3 EGFR L858R/T790M/C797S cells were purchased from CoBioer Biosciences Co., Ltd.; • Cell Titer-Glo was purchased from Promega, with a catalogue number of G7573; • RPMI 1640 was purchased from Gibco, with a catalogue number of 22400089; • FBS was purchased from Gibco, with a catalogue number of 10091148; • cell culture plates were purchased from Corning, with a catalogue number of 3610. Experimental methods: The inhibitory activity of the compound on the proliferation of different EGFR C797S drug-resistant mutant cell lines was detected using the Cell Titer-Glo method. The different cell lines were cultured in RPMI 1640 complete culture medium containing 10% FBS under conditions of 37°C and 5% CO2, the cells were collected by centrifugation when growing to a certain density, and adjusted to appropriate cell density after counting, the cells were spread on a white 96-well plate at 90 µL/well, and cultured in a 37°C, 5% CO2 incubator overnight, prepared compound solutions at different concentrations were added at 10 µL/well, corresponding solvent controls were set, and all wells were cultured in a 37°C, 5% CO2 incubator for 72 hours, 50 µL of CellTiter-Glo solution was added to each well, shook and mixed evenly, and incubated in the dark for 10 minutes, and a BioTek Synergy H1 microplate reader was used for reading. Experimental data processing method: The luminescence signal value was used to calculate the inhibition rate. Graphpad Prism software was used to fit the concentration and inhibition rate to a nonlinear regression curve, so as to obtain the IC50 value, as shown in the Table below for details.

Series [6] has as its system Ba/F3 EGFR Del19/C797S. Described as above. The settings on record: Mus musculus, 72 hours, read-out: Ba/F3 EGFR Dell9/C797S IC50. The class given is cell-based. The method, then: as §1
For series [7], the system named is Ba/F3 EGFR Del19/T790M/C797S. The series is described as above. The class given is cell-based. The settings on record: Mus musculus, 72 hours, read-out: Ba/F3 EGFR Del19_T790M_C797S IC50. Here is the method: as §1

Broadly, the thermodynamic solubility is solubility found after equilibrating the solid with the medium. Turning to `CC(C)c1c(F)cc(N2C[C@H](N(C)S(C)(=O)=O)[C@H]2C)c2cnc(Nc3ccnc(-c4cn(C)nc4Cl)n3)cc12` [crystal form A of phosphate, N-((2R,3S)-1-(3-((2-(3-chloro-1-methyl-1H-pyrazol-4-yl)pyrimidin-4-yl)amino)-6-fluoro-5-isopropylisoquinolin-8-yl)-2-methylazetidin-3-yl)-N-methylmethanesulphonamide], the “weight gain after moisture absorption” value in series [1] (RH 80%) was determined as 0.533%. The hygroscopicity result in series [1] (RH 80%, result in words) is on record as “weak hygroscopicity”. The “crystal form transformation (XRPD pattern)” value in series [1] (after 1 cycle of moisture absorption and desorption, 0-95% relative humidity) was “no crystal form transformation occurred”. Moreover, in series [2], the “stability (impurity increase)” value is “relatively stable”. The “thermodynamic solubility FaSSGF” value in series [3] (FaSSGF (artificial simulated gastric fluid)) is listed as 0.010. Besides, in series [3] (FaSSIF (fasted-state artificial simulated intestinal fluid)), the “thermodynamic solubility FaSSIF” value was 0.203. Also, the solubility (thermodynamic) at 24 h in series [3] (thermodynamic from solid, FeSSIF (fed-state artificial simulated intestinal fluid)) was 1200 µg/mL.

As a reminder, the AUC(0-t) is the area under the concentration-time curve up to a stated or last time point. In general, Cmax refers to the peak of the concentration-time curve. The term half-life denotes how long it takes for the measured level to halve. As for `CC(C)c1c(F)cc(N2C[C@H](N(C)S(C)(=O)=O)[C@H]2C)c2cnc(Nc3ccnc(-c4cn(C)nc4Cl)n3)cc12` [Example 2, N-((2R,3S)-1-(3-((2-(3-chloro-1-methyl-1H-pyrazol-4-yl)pyrimidin-4-yl)amino)-6-fluoro-5-isopropylisoquinolin-8-yl)-2-methylazetidin-3-yl)-N-methylmethanesulphonamide], the AUC(0-t) in series [4] worked out at 1770 ng·h/mL. The same molecule registered a Cmax in series [4] of 142 ng/mL. The molecule further had a half-life in series [4] of 3.9 h. The values for the IC50 in series [5], in series [6] and in series [7] were 15 nM, 6.2 nM and 4.5 nM, respectively.

The molecule `CC(C)c1c(F)cc(N2C[C@H](CS(C)(=O)=O)[C@H]2C)c2cnc(Nc3ccnc(-c4cn(C)nc4Cl)n3)cc12` [Example 1, N-(2-(3-chloro-1-methyl-1H-pyrazol-4-yl)pyrimidin-4-yl)-6-fluoro-5-isopropyl-8-((2R,3S)-2-methyl-3-((methanesulphonyl)methyl)azetidin-1-yl)isoquinolin-3-amine] had an AUC(0-t) in series [4] of 2100 ng·h/mL. This molecule registered a Cmax in series [4] of 178 ng/mL. The molecule further had a half-life in series [4] of 2.3 h. For the same molecule, the IC50 was determined as 14 nM in series [5], 11 nM in series [6] and 7.1 nM in series [7].

Regarding `Cc1nn(C)cc1-c1nccc(Nc2cc3c(C(C)C)c(F)cc(N4C[C@H](CS(C)(=O)=O)[C@H]4C)c3cn2)n1` [Example 4, N-(2-(1,3-dimethyl-1H-pyrazol-4-yl)pyrimidin-4-yl)-6-fluoro-5-isopropyl-8-((2R,3S)-2-methyl-3-((methanesulphonyl)methyl)azetidin-1-yl)isoquinolin-3-amine], the values for the IC50 in series [6] and in series [7] were 18 nM and 6.8 nM, respectively.

Regarding `Cc1nn(C)cc1-c1nccc(Nc2cc3c(C(C)C)c(F)cc(N4C[C@H](N(C)S(C)(=O)=O)[C@H]4C)c3cn2)n1` [Example 5, N-((2R,3S)-1-(3-((2-(1,3-dimethyl-1H-pyrazol-4-yl)pyrimidin-4-yl)amino)-6-fluoro-5-isopropylisoquinolin-8-yl)-2-methylazetidin-3-yl)-N-methylmethanesulphonamide], in series [4], the AUC(0-t) was 2000 ng·h/mL, the Cmax is 157 ng/mL and the half-life is 3.9 h. Besides, in series [6], the IC50 came to 7.8 nM. Further, in series [7], the IC50 is 4.5 nM.

For the molecule `CC(C)c1c(F)cc(N2C[C@H](NS(C)(=O)=O)[C@H]2C)c2cnc(Nc3ccnc(-c4cn(C)nc4Cl)n3)cc12` [Example 14, N-((2R,3S)-1-(3-((2-(3-chloro-1-methyl-1H-pyrazol-4-yl)pyrimidin-4-yl)amino)-6-fluoro-5-isopropylisoquinolin-8-yl)-2-methylazetidin-3-yl)methanesulphonamide], the IC50 is 8.8 nM in series [5] and 2.6 nM in series [6].

These data come from patent EP4778921A1, “SALT FORM AND CRYSTAL FORM OF NITROGEN-CONTAINING HETEROCYCLIC DERIVATIVE INHIBITOR, AND PREPARATION METHOD THEREFOR AND USE THEREOF” (Shanghai Hansoh Biomedical Co., Ltd., priority 2023, dated 2025).
